# Test results reported in patent US5763235A (priority 1994, dated 1998).
# Read-outs that look alike come from different tables or passages of the source.
# Key:
# [1] = system: ALA dehydratase variant of strain CR-514; assay: ALA dehydratase reaction with crude enzyme of strain CR-514; assay type: biochemical, Rhodobacter sphaeroides CR-514; details: enzyme of CR-514, unit not given (concentrations in method in mM)
# [2] = molecular target: ALA dehydratase variant of strain CR-520; assay: ALA dehydratase reaction with crude enzyme of strain CR-520; assay type: biochemical, Rhodobacter sphaeroides CR-520; details: inhibitor constant of levulinic acid, Dixon plot; enzyme of CR-520; 37° C., 60 minutes; unit not given (concentrations in method in mM)
# [3] = molecular target: ALA dehydratase of Rhodobacter sphaeroides CR-450; assay: ALA dehydratase reaction with crude enzyme of CR-450 (Comparative Example 2); assay type: biochemical; details: inhibitor constant of levulinic acid, Dixon plot, 37° C., 60 minutes, unit not given (concentrations in method in mM)
# [4] = system: Rhodobacter sphaeroides IFO 12203; details: glycine 30 mM, 30° C., dark
# Procedure: (§1) A 500 ml portion of medium 1 was prepared in a 2 l capacity shaking flask. This was sterilized at 121° C. for 15 minutes and then spontaneously cooled.
# (§2) Separately from this, each of the mutant strains CR-514, CR-520 and CR-533 obtained in Example 3 was inoculated into a 21 mm.phi. test tube containing 10 ml of medium 1 which was sterilized in the same manner as described in the foregoing and cultured in the dark at 30° C. for 48 hours on a shaker.
# (§3) The entire portion of each culture broth was inoculated into the aforementioned shaking flask and cultured in the dark at 30° C. for 48 hours on a shaker, and the resulting cells were collected by centrifugation.
# (§4) The thus collected cells were suspended in 150 ml of sterilized medium 1, to a wet cell density of about 0.3 g/10 ml, and the cell suspension was mixed with 30 mM of glycine and dispensed in 10 ml portions into 21 mm.phi. test tubes. After adding varied concentration of levulinic acid, shaking culture was carried out at 30° C. in the dark.
# (§5) (Clinical Chemistry, 36(8): 1494 (1990)).
# [5] = system: strain CR-514; details: glycine 30 mM, 30° C., dark
# Procedure: as §1, §2, §3, §4, §5
# [6] = system: strain CR-520; details: glycine 30 mM, 30° C., dark
# Procedure: as §1, §2, §3, §4, §5
# [7] = system: strain CR-533; details: glycine 30 mM, 30° C., dark
# Procedure: as §1, §2, §3, §4, §5
# [8] = system: Rhodobacter sphaeroides CR-450; details: glycine 30 mM, 30° C., dark
# Procedure: as §1, §2, §3, §4, §5
# The process of Example 4 was conducted, except that Rhodobacter sphaeroides CR-450 was used and the amount of levulinic acid was changed as shown in Table 3.
# [9] = molecular target: ALA dehydratase of strain CR-533; details: inhibitor constant of levulinic acid, Dixon plot; enzyme of CR-533; 37° C., 60 minutes; unit not given (concentrations in method in mM)
smiles,measurement,setting,value
"NCC(=O)CCC(=O)O [ALA, 5-aminolevulinic acid]",Km,"[1]; Michaelis constant for ALA, Lineweaver-Burk",0.76 mM
CC(=O)CCC(=O)O [levulinic acid],Ki,"[1]; inhibitor constant of levulinic acid, Dixon plot, 37° C., 60 minutes",0.21 mM
same,Ki,[2],0.07 mM
same,Ki,[3],0.37 mM
same,Amount of ALA formed after 15 hours,[4]; levulinic acid 5 mM,0.01 mM
same,Amount of ALA formed after 30 hours,[4]; levulinic acid 5 mM,0 mM
same,Amount of ALA formed after 15 hours,[4]; levulinic acid 15 mM,0.1 mM
same,Amount of ALA formed after 30 hours,[4]; levulinic acid 15 mM,0 mM
same,Amount of ALA formed after 15 hours,[5]; levulinic acid 1 mM,1.5 mM
same,Amount of ALA formed after 30 hours,[5]; levulinic acid 1 mM,1.5 mM
same,Amount of ALA formed after 15 hours,[5]; levulinic acid 5 mM,2.0 mM
same,Amount of ALA formed after 30 hours,[5]; levulinic acid 5 mM,3.0 mM
same,Amount of ALA formed after 15 hours,[5]; levulinic acid 10 mM,2.2 mM
same,Amount of ALA formed after 30 hours,[5]; levulinic acid 10 mM,4.1 mM
same,Amount of ALA formed after 15 hours,[6]; levulinic acid 0.5 mM,2.0 mM
same,Amount of ALA formed after 30 hours,[6]; levulinic acid 0.5 mM,2.8 mM
same,Amount of ALA formed after 15 hours,[6]; levulinic acid 1 mM,2.5 mM
same,Amount of ALA formed after 30 hours,[6]; levulinic acid 1 mM,4.5 mM
same,Amount of ALA formed after 15 hours,[6]; levulinic acid 5 mM,3.0 mM
same,Amount of ALA formed after 30 hours,[6]; levulinic acid 5 mM,6.5 mM
same,Amount of ALA formed after 15 hours,[7]; levulinic acid 5 mM,1.7 mM
same,Amount of ALA formed after 30 hours,[7]; levulinic acid 5 mM,2.4 mM
same,Amount of ALA formed after 15 hours,[7]; levulinic acid 15 mM,2.4 mM
same,Amount of ALA formed after 30 hours,[7]; levulinic acid 15 mM,3.9 mM
same,Amount of ALA formed after 15 hours,[7]; levulinic acid 30 mM,2.2 mM
same,Amount of ALA formed after 30 hours,[7]; levulinic acid 30 mM,3.3 mM
same,Amount of ALA formed after 15 hours,[8]; levulinic acid 5 mM,1.5 mM
same,Amount of ALA formed after 30 hours,[8]; levulinic acid 5 mM,1.5 mM
same,Amount of ALA formed after 15 hours,[8]; levulinic acid 15 mM,2.5 mM
same,Amount of ALA formed after 30 hours,[8]; levulinic acid 15 mM,3.8 mM
same,Amount of ALA formed after 15 hours,[8]; levulinic acid 30 mM,2.0 mM
same,Amount of ALA formed after 30 hours,[8]; levulinic acid 30 mM,2.5 mM
same,Ki,[9],0.36 mM
